ChEMBL document CHEMBL5584334, “Discovery of a Covalent Inhibitor of Pro-Caspase-1 Zymogen Blocking NLRP3 Inflammasome Activation and Pyroptosis” (J Med Chem, 2024)
Calls of active or inactive are those of the source. The calls are words filed in the database; no cut-off is given here.

Columns and labels:
J774.A1 [1] = test: Effect on ASC speck formation in mouse J774.A1 cells at 2 uM pretreated with LPS for 3 hrs prior to compound addition followed by nigericin stimulation; type: functional, cell-based
[2] = target: NACHT, LRR and PYD domains-containing protein 3 (Mus musculus) (UniProt Q8R4B8); test: Inhibition of NLRP3 inflammasome activation in LPS/MSU stimulated mouse J774.A1 cells assessed as reduction in IL-18 production incubated for 4 hrs by ELISA; type: cell-based
J774.A1 [3] = test: Inhibition of ASC colocalization in LPS/nigericin stimulated mouse J774.A1 cells; type: functional, cell-based
J774.A1 [4] = test: Downregulation of inhibitor kappa B-alpha phosphorylation in mouse J774.A1 cells at 0.5 to 2 uM preincubated for 30 mins followed by LPS addition and measured after 2 hrs by Western blotting analysis; type: functional, cell-based; details: dose 0.5-2 µM, time 2.5 hrs
HEK293T [5] = test: Inhibition of recombinant caspae-1 C285A/C397A double mutant (unknown origin) to GSDMD (unknown origin) interaction expressed in HEK293T cells; type: cell-based; details: Homo sapiens
[6] = target: NACHT, LRR and PYD domains-containing protein 3 (Homo sapiens) (UniProt Q96P20); test: Inhibition of NLRP3 inflammasome activation in LPS/nigericin stimulated human THP-1 cells assessed as reduction in IL-1beta production at 1 uM pretreated with LPS for 3 hrs followed by compound addition for 30 mins prior to nigericin stimulation for 45 mins by ELISA; type: cell-based; details: time 75.0 min
THP-1 [7] = test: Effect on pro-caspase-4 expression in human THP-1 cells at 2 uM pretreated with pam3CSK4 for 3 hrs followed by compound addition for 30 mins prior to cytosolic LPS stimulation for 16 hrs by ELISA; type: functional, cell-based; details: time 16.5 hrs
BMDM = test: Effect on cleaved caspase-11 expression in mouse BMDM cells at 0.5 to 2 uM pretreated with pam3CSK4 for 3 hrs followed by compound addition for 30 mins prior to cytosolic LPS stimulation for 16 hrs by ELISA; type: functional, cell-based; details: dose 0.5-2 µM, time 16.5 hrs
THP-1 [8] = test: Effect on cleaved caspase-5 expression in human THP-1 cells at 2 uM pretreated with pam3CSK4 for 3 hrs followed by compound addition for 30 mins prior to cytosolic LPS stimulation for 16 hrs by ELISA; type: functional, cell-based; details: time 16.5 hrs
[9] = Acute toxicity in Kunming mouse assessed as kidney damage at 100 mg/kg, ip administered for 14 days; type: organism-based; details: in vivo, 336 h, time 14 day
[10] = target: NACHT, LRR and PYD domains-containing protein 3 (Mus musculus) (UniProt Q8R4B8); test: Inhibition of NLRP3 inflammasome activation in mouse J774.A1 cells assessed as reduction in NLRP3 mRNA expression at 0.5 to 2 uM preincubated for 30 mins followed by LPS stimulation for 24 hrs by RT-qPCR analysis; type: cell-based; details: dose 0.5-2 µM, time 24.5 hrs
THP-1 [11] = test: Effect on pro-1L-1beta protein expression in LPS/nigericin stimulated human THP-1 cells supernatant at 0.5 to 2 uM by Western blotting analysis; type: functional, cell-based; details: dose 0.5-2 µM
Mus musculus = test: Anti-inflammatory activity in MSU/C18:0 free fatty acid induced Kunming mouse model of gouty arthritis assessed as effect on pro-IL-1beta expression at 5 to 20 mg/kg, ip preadministered with compound for 30 mins followed by MSU/C18:0 free fatty acid injection and measured after 24 hrs by Western blotting analysis; type: functional, organism-based; details: dose 5-20 mg/kg, time 24.5 hrs
[12] = system: Caspase-1 (Homo sapiens), P29466 [C270A]; test: Binding affinity to recombinant caspase-1 C270A mutant (unknown origin) at 2 uM by SDS-PAGE analysis
HEK293T [13] = test: Inhibition of recombinant caspae-1 C285A mutant (unknown origin) to GSDMD (unknown origin) interaction expressed in HEK293T cells; type: cell-based; details: Homo sapiens
[14] = target: Interferon-inducible protein AIM2 (Mus musculus) (UniProt Q91VJ1); test: Inhibition of AIM2 inflammasome activation in mouse BMDMs assessed as reduction in caspase-1 activation at 0.5 to 2 uM primed with LPS for 3 hrs followed by incubation with compound for 30 mins and later stimulated with poly (dA:dT) for 16 hrs; type: cell-based; details: BMDM, dose 0.5-2 µM, time 16.5 hrs
HEK293T [15] = test: Inhibition of recombinant caspae-1 C397A mutant (unknown origin) to GSDMD (unknown origin) interaction expressed in HEK293T cells; type: cell-based; details: Homo sapiens
THP-1 [16] = test: Inhibition of p20 fragment of IL-1beta protein expression in LPS/ATP stimulated human THP-1 cells supernatant by Western blotting analysis; type: functional, cell-based
J774.A1 [17] = test: Downregulation of p65 phosphorylation in mouse J774.A1 cells at 0.5 to 2 uM preincubated for 30 mins followed by LPS addition and measured after 2 hrs by Western blotting analysis; type: functional, cell-based; details: dose 0.5-2 µM, time 2.5 hrs
Caspase-3 (Mus musculus) = target: T1, Caspase-3 (Mus musculus) (UniProt P70677); test: Inhibition of cisplatin induced caspase-3 activation in mouse J774.A1 cells at 2 uM preincubated for 30 mins followed by cisplatin addition and incubated overnight; type: cell-based
T1 sequence (whole entry): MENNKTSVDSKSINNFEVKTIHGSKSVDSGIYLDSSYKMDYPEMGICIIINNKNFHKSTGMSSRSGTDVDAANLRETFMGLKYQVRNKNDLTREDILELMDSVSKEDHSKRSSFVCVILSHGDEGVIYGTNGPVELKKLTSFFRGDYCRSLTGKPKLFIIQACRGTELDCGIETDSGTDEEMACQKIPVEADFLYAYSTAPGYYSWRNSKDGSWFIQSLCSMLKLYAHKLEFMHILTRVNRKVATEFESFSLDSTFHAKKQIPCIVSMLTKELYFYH

HEK293T [18] = test: Inhibition of recombinant caspae-1 C270A mutant (unknown origin) to GSDMD (unknown origin) interaction expressed in HEK293T cells; type: cell-based; details: Homo sapiens
THP-1 [19] = test: Inhibition of p20 fragment of caspase 1 protein expression in LPS/nigericin stimulated human THP-1 cells supernatant at 0.5 to 2 uM by Western blotting analysis; type: functional, cell-based; details: dose 0.5-2 µM
J774.A1 [20] = test: Binding affinity to pro-caspase 1 in mouse J774.A1 cells assessed as increase in protein stability incubated for 30 mins by CETSA; type: cell-based; details: dose 1-100 µM
J774.A1 [21] = test: Inhibition of pyroptosis in mouse J774.A1 cells assessed as reduction in LDH release at 0.5 to 2 uM pretreated with LPS for 3 hrs followed by compound addition in presence of nigericin; type: functional, cell-based; details: dose 0.5-2 µM

Chain of NACHT, LRR and PYD domains-containing protein 3 (Mus musculus) (Q8R4B8 whole entry, the tested form may be a part): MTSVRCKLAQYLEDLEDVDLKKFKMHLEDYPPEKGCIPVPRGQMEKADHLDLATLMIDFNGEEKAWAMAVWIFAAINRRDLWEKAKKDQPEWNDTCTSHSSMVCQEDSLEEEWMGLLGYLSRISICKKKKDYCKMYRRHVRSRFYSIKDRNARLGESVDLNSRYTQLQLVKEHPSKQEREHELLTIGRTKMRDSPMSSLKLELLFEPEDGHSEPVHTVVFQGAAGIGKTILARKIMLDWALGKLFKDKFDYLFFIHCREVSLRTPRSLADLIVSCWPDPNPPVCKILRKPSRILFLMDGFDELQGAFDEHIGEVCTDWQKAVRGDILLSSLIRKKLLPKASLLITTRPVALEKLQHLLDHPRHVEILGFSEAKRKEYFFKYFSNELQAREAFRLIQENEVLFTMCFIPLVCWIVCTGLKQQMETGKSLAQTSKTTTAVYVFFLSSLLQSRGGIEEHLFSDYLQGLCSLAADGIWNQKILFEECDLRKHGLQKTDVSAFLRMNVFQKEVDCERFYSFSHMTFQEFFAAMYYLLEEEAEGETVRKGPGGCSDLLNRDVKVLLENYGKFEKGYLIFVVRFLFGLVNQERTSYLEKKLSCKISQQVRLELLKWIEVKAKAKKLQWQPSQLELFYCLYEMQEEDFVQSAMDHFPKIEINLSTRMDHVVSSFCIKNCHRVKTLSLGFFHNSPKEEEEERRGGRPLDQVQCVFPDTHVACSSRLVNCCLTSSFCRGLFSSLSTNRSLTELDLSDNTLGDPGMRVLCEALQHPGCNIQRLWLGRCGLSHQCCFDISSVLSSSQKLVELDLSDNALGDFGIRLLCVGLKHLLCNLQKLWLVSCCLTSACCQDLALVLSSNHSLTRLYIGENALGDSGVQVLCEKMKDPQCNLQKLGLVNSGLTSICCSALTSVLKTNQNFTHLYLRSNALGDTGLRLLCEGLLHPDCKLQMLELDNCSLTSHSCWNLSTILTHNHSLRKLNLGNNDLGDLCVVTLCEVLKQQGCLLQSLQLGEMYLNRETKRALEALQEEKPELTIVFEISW
Chain of NACHT, LRR and PYD domains-containing protein 3 (Homo sapiens) (Q96P20 whole entry, the tested form may be a part): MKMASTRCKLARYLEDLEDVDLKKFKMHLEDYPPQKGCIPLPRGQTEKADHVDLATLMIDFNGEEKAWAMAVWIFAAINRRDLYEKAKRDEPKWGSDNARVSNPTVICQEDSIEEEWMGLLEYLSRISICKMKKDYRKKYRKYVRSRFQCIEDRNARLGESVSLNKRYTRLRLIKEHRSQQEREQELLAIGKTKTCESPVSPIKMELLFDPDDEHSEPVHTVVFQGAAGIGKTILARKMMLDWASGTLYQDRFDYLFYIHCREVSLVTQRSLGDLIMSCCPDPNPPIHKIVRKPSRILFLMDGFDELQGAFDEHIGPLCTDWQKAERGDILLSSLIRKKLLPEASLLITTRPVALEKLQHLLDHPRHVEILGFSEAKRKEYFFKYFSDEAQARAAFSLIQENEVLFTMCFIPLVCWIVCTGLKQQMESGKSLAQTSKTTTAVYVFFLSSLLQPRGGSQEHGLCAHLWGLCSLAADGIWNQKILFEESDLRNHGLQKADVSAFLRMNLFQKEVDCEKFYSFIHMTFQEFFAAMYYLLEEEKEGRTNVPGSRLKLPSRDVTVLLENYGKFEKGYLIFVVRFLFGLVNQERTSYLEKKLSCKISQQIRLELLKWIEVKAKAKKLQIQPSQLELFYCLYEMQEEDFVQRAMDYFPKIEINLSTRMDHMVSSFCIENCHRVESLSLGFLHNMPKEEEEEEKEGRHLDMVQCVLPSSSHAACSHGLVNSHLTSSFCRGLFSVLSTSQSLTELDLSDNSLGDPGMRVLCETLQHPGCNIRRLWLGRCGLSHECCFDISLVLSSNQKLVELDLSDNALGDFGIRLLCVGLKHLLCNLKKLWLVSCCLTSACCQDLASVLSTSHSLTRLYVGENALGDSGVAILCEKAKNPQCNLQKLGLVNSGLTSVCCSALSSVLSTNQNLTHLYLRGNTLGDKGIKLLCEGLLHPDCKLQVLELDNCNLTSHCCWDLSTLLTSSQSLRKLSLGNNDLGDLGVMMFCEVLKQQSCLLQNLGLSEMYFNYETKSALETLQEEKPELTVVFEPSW
Chain of Interferon-inducible protein AIM2 (Mus musculus) (Q91VJ1 whole entry): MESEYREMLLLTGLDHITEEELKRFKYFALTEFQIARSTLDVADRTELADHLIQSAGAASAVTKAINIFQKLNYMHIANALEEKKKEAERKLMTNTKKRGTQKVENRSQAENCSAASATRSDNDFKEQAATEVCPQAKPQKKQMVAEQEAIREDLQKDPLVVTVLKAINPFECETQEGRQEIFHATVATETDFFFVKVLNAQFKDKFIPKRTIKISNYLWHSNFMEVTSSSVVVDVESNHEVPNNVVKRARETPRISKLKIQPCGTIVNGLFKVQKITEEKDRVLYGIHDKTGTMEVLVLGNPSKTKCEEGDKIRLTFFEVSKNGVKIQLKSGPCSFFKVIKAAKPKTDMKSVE
Chain of Caspase-1 (Homo sapiens), P29466 [C270A] (P29466 whole entry C270A): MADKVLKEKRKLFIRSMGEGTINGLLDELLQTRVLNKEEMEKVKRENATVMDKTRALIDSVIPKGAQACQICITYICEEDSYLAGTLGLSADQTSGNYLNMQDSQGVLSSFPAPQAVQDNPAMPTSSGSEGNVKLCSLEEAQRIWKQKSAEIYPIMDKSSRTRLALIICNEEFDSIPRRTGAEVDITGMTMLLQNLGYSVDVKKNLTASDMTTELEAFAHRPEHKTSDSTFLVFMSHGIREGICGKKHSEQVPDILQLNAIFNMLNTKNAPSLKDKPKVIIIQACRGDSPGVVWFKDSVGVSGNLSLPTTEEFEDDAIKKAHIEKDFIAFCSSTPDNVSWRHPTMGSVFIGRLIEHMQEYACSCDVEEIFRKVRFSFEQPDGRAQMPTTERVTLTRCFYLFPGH

COc1ccc2c(c1)[C@]1(C=C[C@H](N=C=S)C[C@H]1C(=O)OC(C)(C)C)C(=O)N2C(=O)OCc1ccccc1
inhibition (J774.A1 [1]): Active | inhibition [2]: Active | inhibition (J774.A1 [3]): Active | Activity (J774.A1 [4]): Active | inhibition (HEK293T [5]): inactive | inhibition [6]: Active | Activity (THP-1 [7]): inactive | Activity (BMDM): inactive | Activity (THP-1 [8]): inactive | Activity [9]: Non-Toxic | inhibition [10]: Active | Activity (THP-1 [11]): inactive | Activity (Mus musculus): inactive | Activity [12]: Active | inhibition (HEK293T [13]): inactive | inhibition [14]: Active | inhibition (HEK293T [15]): inactive | inhibition (THP-1 [16]): Active | Activity (J774.A1 [17]): Active | inhibition (Caspase-3 (Mus musculus)): inactive | inhibition (HEK293T [18]): Active | inhibition (THP-1 [19]): Active | Activity (J774.A1 [20]): Dose-Dependent Effect | inhibition (J774.A1 [21]): Active
